The nature of series [1]: FIG. 12.
Series [2] has as its system NCI-N87-S120. The series can be described thus: in vitro cytotoxicity, MTS (Table 14). The format is cell-based, human. The conditions noted are these: for reversal of SN-38 resistance vs Ko143 and YHO-13351: limited studies; for effect on SN-38 toxicity in S-120 cells: both S-120 cells, in vitro. Here is the method: (§1) Each cell line was maintained according to the recommendations of ATCC and routinely tested for mycoplasma using MYCOALERT™ mycoplasma detection kits (Lonza). The two SN-38-resistant cell lines, MDA-MB-231-5120 and NCI-N87-S120, were established by continuous exposure of the parental cells to stepwise increased concentrations of SN-38 from 6 pM to 120 nM over a period of approximately 2 years. In addition, a revertant cell line (NCI-N87-S120-REV) was obtained after culturing NCI-N87-S120 in SN-38-free medium for 4 months. The S-120 clones were maintained in medium containing 120 nM of SN-38, but cultured in drug-free medium for 7 to 14 days prior to any experiment. All cells were grown at 37° C. as monolayer cultures in a humidified atmosphere of 5% CO2.
(§2) In Vitro cytotoxicity. […] Briefly, cells were placed into wells of 96-well plates. […] From these working solutions, serial 5-fold dilutions were made in sterile media to yield final concentrations between 500 and 0.0064 nM in test wells. […] Cytotoxicity was measured as a percent of growth relative to untreated cells. Dose-response curves were generated from the mean of triplicate determinations, and IC50 values were calculated using GraphPad Prism Software V 6.05 (Advanced Graphics Software).
(§3) The effect of ABCG2 inhibitors on the IC50 values of SN-38 for the parental and resistant cell lines was determined from the respective dose-response curves obtained for SN-38 in the presence of a non-toxic concentration of ABCG2 inhibitors.

Series [3] concerns the target ABCG2 (Homo sapiens, UniProt Q9UNQ0). The conditions noted are these: S-120 cells, FTC 10 μM.
In series [4] the test system is SK-MES-1 human squamous cell lung tumors. In words: SK-MES-1 xenograft therapy. The conditions noted are these: irinotecan at MTD. Format: in vivo, nude mice.
The test system of series [5] is MDA-MB-468 TNBC tumors. In words: MDA-MB-468 TNBC xenograft therapy. Format: in vivo, nude mice. The conditions noted are these: one animal each, tumors progressed after irinotecan.
The conditions of series [6]: monotherapy weekly or once every 3 weeks; cited from earlier work.
Series [7] can be described thus: in vivo. The conditions noted are these: nude, mouse, 773 ug.
Series [8] has as its system COLO 205 tumors. The series can be described thus: COLO 205 xenograft therapy. The conditions noted are these: 24 mg SN-38/kg, q2dx5.
Series [9] deals with NCI-N87-S-120 tumors. In words: SN-38-resistant xenograft therapy. Particulars: IMMU-132 0.5 mg twice weekly ×4 weeks; irinotecan 40 mg/kg q2dx5.
Series [10] relates to NCI-N87. In words: in vitro cytotoxicity, MTS (Table 14). The format is cell-based. The conditions noted are these: Homo sapiens, YHO-13351 2 μM, Ko143 1 μM where added. Here is the method:
as §1
In Vitro cytotoxicity. […] Briefly, cells were placed into wells of 96-well plates. […] Cytotoxicity was measured as a percent of growth relative to untreated cells. Dose-response curves were generated from the mean of triplicate determinations, and IC50 values were calculated using GraphPad Prism Software V 6.05 (Advanced Graphics Software).
as §3

Series [11] deals with MDA-MB-231-S120. In words: in vitro cytotoxicity, MTS (Table 14). The format is cell-based, human. As for the experimental part: as §1, §2, §3
Series [12] has as its system MDA-MB-231. The series can be described thus: in vitro cytotoxicity, MTS (Table 14). Format: cell-based, human. Particulars: Homo sapiens, YHO-13351 2 μM where added. Here is the method:
as §1, §2, §3

The subject of series [13] is Capan-1 tumors. The series can be described thus: CL2 vs CL2A linker, Capan-1 xenograft. The format is in vivo, mice. The conditions noted are these: 0.2 mg/kg SN-38 twice weekly × 4 weeks. Here is the method:
FIG. 4C. […] Capan-1 mice (N=10) were treated with 0.2 mg/kg ADC and tumors measured weekly.

Series [14] relates to Calu-3 tumors. In words: Calu-3 xenograft therapy. Format: in vivo, nude mice. Particulars: 0.4 mg/kg SN-38.
The test system of series [15] is BxPC-3. In words: dsDNA breaks, γH2AX flow cytometry. Particulars: 20 μg/ml for 30 min. Format: cell-based, human. Here is the method:
For drug activity testing, BxPC-3 cells were seeded in 6-well plates at 5×10^5 cells/well and held at 37° C. overnight. […] The following morning, cells were trypsinized briefly, spun down, stained with Fixable Viability Stain 450 (BD Biosciences, San Jose, Calif.), washed with 1% BSA-PBS, and then fixed in 4% formalin for 15 min, washed again and permeabilized in 0.15% Triton-X100 in PBS for another 15 min. After washing twice with 1% BSA-PBS, cells were incubated with mouse anti-γH2AX-AF488 (EMD Millipore Corporation, Temecula, Calif.) for 45 min at 4° C. The signal intensity of γH2AX was measured by flow cytometry using a BD FACSCanto (BD Biosciences, San Jose, Calif.).

For series [16], the target named is T1, Trop-2 on multiple cell lines (Homo sapiens, UniProt P09758).
T1 construct: endogenous in cells; host or cells: human solid tumour cell lines
T1 sequence (P09758 27-323): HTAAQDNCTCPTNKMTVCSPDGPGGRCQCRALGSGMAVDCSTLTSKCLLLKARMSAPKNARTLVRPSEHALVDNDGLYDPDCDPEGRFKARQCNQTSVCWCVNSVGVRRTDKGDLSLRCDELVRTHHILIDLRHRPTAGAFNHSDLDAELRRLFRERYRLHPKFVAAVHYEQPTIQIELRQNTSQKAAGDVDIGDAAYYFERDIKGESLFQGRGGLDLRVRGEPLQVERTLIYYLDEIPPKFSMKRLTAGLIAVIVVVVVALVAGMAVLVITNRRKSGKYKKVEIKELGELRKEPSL
The series can be described thus: in vitro cell binding. Here is the method: LumiGLO Chemiluminescent Substrate System (KPL, Gaithersberg, Md.) was used to detect antibody binding to cells. Briefly, cells were plated into a 96 black-well, flat-clear-bottom plate overnight. Antibodies were serially diluted 1:2 and added in triplicate, yielding a concentration range from 0.03 to 66.7 nM. After incubating for 1 h at 4° C., the media was removed and the cells washed with fresh cold media followed by the addition of a 1:20,000 dilution of goat-antihuman horseradish peroxidase-conjugated secondary antibody (Jackson Immunoresearch, West Grove, Pa.) for 1 h at 4° C. The plates were again washed before the addition of the LumiGLO reagent. Plates were read for luminescence using an Envision plate reader (Perkin Elmer, Boston Mass.). Data were analyzed by non-linear regression to determine the equilibrium dissociation constant (KD). Statistical comparisons of KD-values were made with Prism GraphPad Software (v4.03) (Advanced Graphics Software, Inc.; Encinitas, Calif.) using an F-Test on the best-fit curves for the data. Significance was set at P<0.05.

Series [17] relates to Capan-1 xenografts. The series can be described thus: combined radioimmunotherapy and ADC, Capan-1 xenograft. Format: in vivo, nude mice. The source says:
The present study examined combinations of ^90Y-hPAM4 IgG with RS7-SN-38 in nude mice bearing 0.35 cm^3 subcutaneous xenografts of the human pancreatic cancer cell line, Capan-1. […] These studies provide the first evidence that combined radioimmunotherapy and ADC enhances efficacy at safe doses.

Sequence of ABCG2 (Q9UNQ0 whole entry): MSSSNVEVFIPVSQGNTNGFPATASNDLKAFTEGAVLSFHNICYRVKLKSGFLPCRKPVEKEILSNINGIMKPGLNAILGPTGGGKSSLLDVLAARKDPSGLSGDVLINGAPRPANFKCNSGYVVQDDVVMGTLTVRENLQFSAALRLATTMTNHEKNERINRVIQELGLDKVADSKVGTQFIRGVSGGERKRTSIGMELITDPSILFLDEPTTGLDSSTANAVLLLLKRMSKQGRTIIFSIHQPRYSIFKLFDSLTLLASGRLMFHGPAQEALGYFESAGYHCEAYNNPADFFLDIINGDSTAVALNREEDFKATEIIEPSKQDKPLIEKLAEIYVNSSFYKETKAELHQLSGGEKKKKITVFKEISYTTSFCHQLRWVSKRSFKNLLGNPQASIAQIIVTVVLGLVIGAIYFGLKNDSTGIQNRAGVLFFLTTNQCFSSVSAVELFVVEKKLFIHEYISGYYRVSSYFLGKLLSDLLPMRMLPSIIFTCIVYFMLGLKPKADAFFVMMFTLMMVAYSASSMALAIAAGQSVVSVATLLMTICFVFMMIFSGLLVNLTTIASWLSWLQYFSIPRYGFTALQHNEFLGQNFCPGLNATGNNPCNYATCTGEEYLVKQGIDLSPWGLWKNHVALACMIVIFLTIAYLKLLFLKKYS

With `CCc1c2c(nc3ccc(O[C@@H]4O[C@H](C(=O)O)[C@@H](O)[C@H](O)[C@H]4O)cc13)-c1cc3c(c(=O)n1C2)COC(=O)[C@]3(O)CC` [SN-38G (5 min - 6 h)], the AUC in series [1] was 11.6 (µg/mL·h).

Regarding cyclosporine A, in series [2], the “reversal of SN-38 resistance vs Ko143 and YHO-13351” value (shortened to “reversal … vs Ko143 and YHO-13351”) is given as “comparable or less potency”.

Consider `COc1ccc2c3c([nH]c2c1)[C@H](C=C(C)C)N1C(=O)[C@@H]2CCCN2C(=O)[C@@H]1C3` [FTC], for which, in series [2], the “effect on SN-38 toxicity in S-120 cells” value was “restored toxicity of SN-38”; the “reversal … vs Ko143 and YHO-13351” value is “comparable or less potency”. In series [3], the “reduction of intracellular PhA on omission of FTC” value was “greater than 95%”.

Regarding `CCc1c2c(nc3ccc(OC(=O)N4CCC(N5CCCCC5)CC4)cc13)-c1cc3c(c(=O)n1C2)COC(=O)[C@]3(O)CC` [irinotecan, reference compound], the “antitumor effect vs specific conjugate” value in series [4] is on record as “the same antitumor effects as the specific hRS7-SN-38 conjugate”. The “decrease in tumor size on re-treatment” value in series [5] amounted to 23%. For the same molecule, the “grade 3 and 4 neutropenia incidence” value in series [6] is recorded as 14 to 26%. In series [7], this molecule displayed an AUC of 21000 ng·h/mL. Also, in series [8], the “efficacy at MTD” value is on record as “as effective as hRS7-CL2-SN-38”. Besides, in series [9], the survival benefit entry is on record as “no significant survival benefit”.

By IC50 is commonly meant the point on the concentration scale where inhibition reaches its midpoint. Higher therefore signals weaker potency in that assay. Take `CC(=O)O[C@H]1C(=O)[C@@]2(C)[C@H]([C@H](OC(=O)c3ccccc3)[C@]3(O)C[C@H](OC(=O)[C@H](O)[C@@H](NC(=O)c4ccccc4)c4ccccc4)C(C)=C1C3(C)C)[C@]1(OC(C)=O)CO[C@@H]1C[C@@H]2O` [Paclitaxel]: the IC50 in series [10] is 7.9 ± 4 nM; in series [11] (Homo sapiens, MDA-MB-231-S120, YHO-13351 2 μM where added), 3.2 ± 0.7 nM; in series [12] it was 2.5 ± 0.1 nM; in series [2] (Homo sapiens, NCI-N87-S120, YHO-13351 2 μM, Ko143 1 μM where added), 8.6 ± 6.5 nM. Besides, the “RF (resistance factor)” value in series [11] (IC50 mean of MDA-MB-231-S120 / MDA-MB-231) was found to be 1.3; in series [2] (IC50 mean of NCI-N87-S120 / NCI-N87), 1.1.

Turning to hRS7-CL2-SN-38, the “mice tumor-free at end of study (day 140)” value in series [13] is 40%. Further, the “response at higher dose” value in [14] is listed as “remained tumor-free until the end of the study on day 147”.

As for `COc1cc2c(cc1OC)CN(CCc1ccc(NC(=O)c3cccc4c(=O)c5cccc(OC)c5[nH]c34)cc1)CC2` [GF120918], in [2], the “effect on SN-38 toxicity in S-120 cells” value is reported as “restored toxicity of SN-38”; the “reversal … vs Ko143 and YHO-13351” value is on record as “comparable or less potency”.

On to `CCN(CC)CC(=O)OC1CCN(c2ccc(/C=C(\C#N)c3ccc(OC)c(OC)c3)s2)CC1.CS(=O)(=O)O` [YHO-13351], for which the “effect on SN-38 toxicity in S-120 cells” value in series [2] is “restored toxicity of SN-38”.

As to `CCc1c2c(nc3ccc(O)cc13)-c1cc3c(c(=O)n1C2)COC(=O)[C@]3(O)CC` [SN-38 (5 min - 2 h)], the AUC in series [1] is 3.9 (µg/mL·h).

With hA20-CL2A-SN-38 [reference compound], the “mice tumor-free at end of study (day 140)” value in series [13] is 20%. Also, the “antitumor effect vs specific conjugate” value in series [4] was “the same antitumor effects as the specific hRS7-SN-38 conjugate”. Further, the “Mean Fluorescence Intensity (γH2AX)” value in [15] is reported as 2246 ± 58. The “Percent Positive (γH2AX)” value in [15] (listed as hA20-SN-38) is listed as 12.7 ± 2.4%.

In the case of “hRS7-NEM: hRS7 treated with TCEP and conjugated with N-ethylmaleimide [reference compound]”, the KD entry in series [16] is given as “in the sub-nanomolar range”.

B1: ^90Y-hPAM4 (conjugate, chains of the INN, looked up)
VH: QVQLQQSGAEVKKPGASVKVSCEASGYTFPSYVLHWVKQAPGQGLEWIGYINPYNDGTQYNEKFKGKATLTRDTSINTAYMELSRLRSDDTAVYYCARGFGGSYGFAYWGQGTLVTVSS
VL: DIQLTQSPSSLSASVGDRVTMTCSASSSVSSSYLYWYQQKPGKAPKLWIYSTSNLASGVPARFSGSGSGTDFTLTISSLQPEDSASYFCHQWNRYPYTFGGGTRLEIK
modifications: 90Y radiolabel
As to B1, the “mice tumor-free after 20 weeks” value in series [17] (75 μCi alone) is 1 of 10. In series [17] (130 μCi RAIT alone), the animals tumor-free is listed as 5 of 10.

B2: hPAM4: unconjugated humanized PAM4 anti-MUC5ac antibody (antibody, chains of the INN, looked up, V domains shown)
VH: QVQLQQSGAEVKKPGASVKVSCEASGYTFPSYVLHWVKQAPGQGLEWIGYINPYNDGTQYNEKFKGKATLTRDTSINTAYMELSRLRSDDTAVYYCARGFGGSYGFAYWGQGTLVTVSS
VL: DIQLTQSPSSLSASVGDRVTMTCSASSSVSSSYLYWYQQKPGKAPKLWIYSTSNLASGVPARFSGSGSGTDFTLTISSLQPEDSASYFCHQWNRYPYTFGGGTRLEIK
Consider B2, for which, in series [17] (given alone), the “anti-tumor activity of unconjugated antibody” value is on record as “Neither unconjugated hPAM4 nor hRS7 antibodies had anti-tumor activity when given alone”.

These data come from patent US10954305B2 (Immunomedics, Inc., priority 2016, dated 2021).
